Where two headings read alike, the source gives them in different places.
Assays:
[1] = biological target: T1, HCK kinase (Homo sapiens, UniProt P08631); assay: HCK activity inhibition, radioactive kinase assay (Reaction Biology Corp); assay type: biochemical
T1 construct: purchased Reaction Biology Corp
Procedure: HCK activity inhibition efficiency for the inhibitors. Inhibiting efficiency is performed in Reaction Biology with Corp P32 radioactive kinase assay, comparing compounds of the invention with dasatinib for HCK, Bcr-Abl and other binding kinases identified in the reference. Briefly, HCK kinase was delivered into the substrate solution and gently mixed, then compounds in DMSO were added into the kinase reaction mixture by Acoustic technology (Echo550; Nano liter range), and incubated for 20 minutes at room temperature. 33P-ATP was delivered into the reaction mixture to initiate the reaction. The kinase reaction was incubated for 2 hours at room temperature. Reactions were spotted onto P81 ion exchange paper, and detected kinase activity was measured by filter-binding method.

[2] = system: HK2 cells; assay: mRNA expression of fibrosis markers in HK2 cells; assay type: cell-based
[3] = system: SMAD3 transcriptional activity in HEK293 cells; assay: SMAD3 transcriptional activity in HEK293 cells; assay type: cell-based
[4] = system: murine UUO model; assay: Murine unilateral ureteral obstruction (UUO) kidney fibrosis model; assay type: in vivo, Male C57BL/6 mice; conditions: 25 mg/kg by gavage daily, 7-days post-UUO
Procedure: Inhibiting Hck activity in vivo with Example 2 attenuates kidney fibrosis in murine UUO model: Unilateral ureteral obstruction (UUO) was performed on Male C57BL/6 mice (˜10 weeks age). Mice were perfused 7-days post UUO. The inhibitory activity of the compounds of the invention as compared to controls was determined. The UUO mice were treated with Example 2 at 25 mg/kg or vehicle (n=5) by gavage daily started one day prior to the surgery to 7-days post-surgery. […] Compounds of the invention are promising HCK-specific inhibitors.
FIG. 1 depicts mRNA—levels of pro-fibrotic markers at 7-days post-UUO by RT-PCR (normalized to GAPDH), from whole cortices of control and UUO kidneys of Example 2 and PBS-fed animals. […] Values are mean±SEM. *P<0.05.

[5] = system: Src-family kinase (SFK); assay: Inhibition of all Src-family kinase (SFK) activity; assay type: biochemical; conditions: FIG. 3
[6] = Cytotoxicity; assay type: cell-based; conditions: at 50 uM (data not shown)
[7] = compared with vehicle-treated mice

T1 sequence (P08631 whole entry): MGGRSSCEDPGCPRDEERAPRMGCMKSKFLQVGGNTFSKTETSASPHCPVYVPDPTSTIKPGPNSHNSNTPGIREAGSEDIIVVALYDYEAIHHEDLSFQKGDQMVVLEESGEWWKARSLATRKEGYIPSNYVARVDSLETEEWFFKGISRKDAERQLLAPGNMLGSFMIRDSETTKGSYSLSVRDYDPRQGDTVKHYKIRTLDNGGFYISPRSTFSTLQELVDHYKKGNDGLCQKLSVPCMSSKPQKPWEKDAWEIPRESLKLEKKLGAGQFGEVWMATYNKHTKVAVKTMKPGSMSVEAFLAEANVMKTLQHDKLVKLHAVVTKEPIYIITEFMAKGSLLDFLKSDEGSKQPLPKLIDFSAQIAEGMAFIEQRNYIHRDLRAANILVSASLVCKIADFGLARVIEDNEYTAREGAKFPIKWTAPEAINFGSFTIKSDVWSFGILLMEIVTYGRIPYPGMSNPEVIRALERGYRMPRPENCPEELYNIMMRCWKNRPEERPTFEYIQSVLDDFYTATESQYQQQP

SMILES: Clc1cc(Cl)c2c(c1)C=C(C1=NOB(c3ccccc3)N1)C(c1ccccc1)O2 (centres unmarked) [Example 2, 3-(6,8-dichloro-2-phenyl-2H-chromen-3-yl)-5-phenyl-4,5-dihydro-1,2,4,5-oxadiazaborole]
- IC50 ([1]; HCK, read-out: IC50): < 20 µM
- IC50 ([1]; radioactive kinase assay, 33P-ATP, 2 hours at room temperature, read-out: IC50 for HCK activity): ~12 µM
- mRNA expression of fibrosis markers ([2]; FIG. 4): reduced
- mRNA expression of COL1A1 ([2]; HK2 cells): reduced
- mRNA expression of FN1 ([2]; HK2 cells): reduced
- mRNA expression of SNAIL ([2]; HK2 cells): reduced
- SMAD3 transcriptional activity [3]: reduced
- renal fibrosis in the UUO kidneys (Masson and collagen I staining) [4]: reduced renal fibrosis
- RTEC injury in the UUO kidney (H&E staining) ([4]; compared to vehicle-treated mice): reduced RTEC injury
- expression of Col1a1 in the UUO kidney [4, 7]: significantly decreased
- expression of FSP-1 in the UUO kidney [4, 7]: significantly decreased
- expression of Fibronectin in the UUO kidney [4, 7]: significantly decreased
- selectivity among Src-family kinases [5]: selectivity to HCK inhibition
- cytotoxicity [6]: no cytotoxicity
